We go through two compounds from patent US20210330698A1, “METHODS AND COMPOSITIONS FOR INHIBITING ENVELOPED VIRUSES USING LOW MOLECULAR WEIGHT HYDROPHOBICALLY MODIFIED POLYMERS” (Johnson & Johnson Consumer Inc., priority 2020, published 2021).

Common to all, as to type: cell-based
In series [1] the test system is ME180 (Cervical) cells. Kind of series: Toxicity to ME180 cells (XTT). The settings on record: exposure 24 h. On the procedure: (§1) TC50 values for the test materials are derived by measuring the reduction of the tetrazolium dye XTT (2,3-bis(2-methoxy-4-nitro-5-sulfophenyl)-5-[(phenylamino)carbonyl]-2H-tetrazolium hydroxide). XTT in metabolically active cells is metabolized by the mitochondrial enzyme Nicotinamide adenine dinucleotide phosphate oxidase (“NADPH”) to a soluble formazan product. XTT solution is prepared daily as a stock of 1 mg/ml in RPMI-1640 without additives. Phenazine methosulfate (PMS) solution is prepared at 0.15 mg/ml in DPBS and stored in the dark at −20° C. XTT/PMS stock is prepared immediately before use by adding 40 μL of PMS per ml of XTT solution. […] of XTT/PMS is added to each well of the plate and the plate incubated for 4 hours at 37° C. The 4 hour incubation has been empirically determined to be within the linear response range for XTT dye reduction with the indicated numbers of cells for each assay. The plates are sealed and inverted several times to mix the soluble formazan product and the plate is read at 450 nm (650 nm reference wavelength) with a Molecular Devices SpectraMax Plus 384 96 well plate format spectrophotometer.
(§2) Twenty-four hours prior to compound exposure, 100 μL of cells are plated at 5×10^4 cells per well in a flat-bottomed plate and. […] The plates are incubated at 5% CO2/37° C. for an additional 24 hours and then evaluated using XTT as described above.
Background: Tetrazolium dyes change colour on reduction, which living cells bring about.

The subject of series [2] is Ca Ski (Cervical) cells. Kind of series: Toxicity to Ca Ski cells (XTT). The settings on record: exposure 24 h. As for the experimental part:
as §1, §2

Series [3] deals with Vaginal Ectocervical Tissues. Kind of series: Toxicity to vaginal ectocervical tissue (MTT). The following applies: exposure 24 h. As for the experimental part:
On the day of the assay, the MatTek assay media is warmed and 900 μL added to each well of a 6-well plate. One hour prior to dosing, the epivaginal tissues are removed from the refrigerator and placed in the 6-well plate and the plate then incubated for 1 hour at 37° C./5% CO2. Following the incubation the media is removed from the 6 well plate and 900 μL of fresh media added. One-hundred microliters (100 μL) of each concentration is added in duplicate to the epivaginal tissue. The plate is then incubated for an additional 24 hours at 37° C./5% CO2. One hour prior to the end of the incubation, 1 mg/mL (3-(4,5-Dimethylthiazol-2-yl)-2,5-diphenyltetrazolium bromide (hereinafter, “MTT” available from Invitrogen of Carlsbad, Calif.) in DMEM is prepared. Fifteen minutes prior to the end of the incubation 300 μL of MTT is added to each well of a 24-well plate. Following the incubation, residual liquid is removed from the tissue and then gently rinsed two times with PBS. Each epivaginal tissue insert is then transferred to an individual well of the 24-well plate containing the MTT solution. The plate is then incubated for 3 hours at 37° C./5% CO2. […] The optical density of each sample is determined at 570 nm with a background of 650 nm. The % viability is determined to be 100×[OD(sample)/OD(negative control)]. […]

The test system of series [4] is HIV-1IIIB. The experiment in a line: Time of compound addition in HeLa-CD4-LTR-β-Gal cells. The settings on record: time of compound addition relative to virus addition. On the procedure:
HeLa-CD4-LTR-β-Gal cells are seeded at a density of 1×10^4 cells/well in a volume of 100 μL 24 hours prior to assay initiation and incubated at 37° C./5% CO2. Following the incubation compound is serially diluted at the specified concentrations and were added to the cells in triplicate at timepoints of −30 minutes, 0, 1, 2, 4, 8 and 24 hours pre- or post-virus addition in a volume of 100 μL. HIV-1IIIB is added to the cells at a pre-determined titer. The cultures are incubated at 37° C./5% CO2 for 48 hours at which time efficacy is evaluated using a chemiluminescent substrate (Gal-Screen™, ThermoFisher Scientific, Waltham, Mass.) and toxicity (three timepoints of 0, 4 and 24 hours) evaluated using the tetrazolium dye XTT.

As to Nonoxynol-9 [Embodiment N-9], the toxic concentration in series [1] is 41.83 µg/mL; in series [2], 36.31 µg/mL; in series [3], 100 to 1000 µg/mL.
`O=C1Nc2ccc(Cl)cc2[C@@](C#CC2CC2)(C(F)(F)F)O1` [Efavirenz]: in series [4], the “Time in which Antiviral Activity is Lost” value lay within 4 to 8 h.
